These are literature values, as cited in patent publication US9072783B2, “Highly dispersible powders, compositions and methods for preparation” (Aridis Pharmaceuticals, priority 2009, dated 2015).

For this data set the following is noted: of the amino acid itself (Table 3).

Take `N[C@@H](CC(=O)O)C(=O)O` [Aspartic Acid, aspartic acid]: the “Hydropathy Index” value is on record as −3.5.

Regarding `N[C@@H](Cc1ccc(O)cc1)C(=O)O` [Tyrosine, tyrosine], the “Hydropathy Index” value is on record as −1.3.
